Laboratory results taken from EP2818471A1, “Nitrogen bicyclic compounds as inhibitors for Scyl1 and Grk5” (Max-Planck-Gesellschaft zur Förderung der Wissenschaften …, priority 2013, dated 2014).

What follows are molecules tested on beta-TC6 cells (assay: Insulin HTRF assay, relative activity Ar normalized to sunitinib). Details: Mus musculus, normalized to positive control sunitinib (5 µM = 100%), Table 10.
Type: cell-based
Source text: For further screening of compounds derived from compounds described above for their ability to regulate insulin release an insulin HTRF® (Homogeneous Time-Resolved Fluorescence; Cisbio International, France) was used. This assay is based on two antibodies against insulin binding to different epitopes of insulin. One of these antibodies is coupled to Europium (Ab-Eu-Cryptate) and the other one to the fluorophore XL665 (Ab-XL665). Is insulin secreted into the supernatant of cell culture both antibodies can bind to insulin and come therefore into close proximity which allows upon excitation that energy transfer between (FRET) the long-life fluorescent donor Europium (cryptate) and the acceptors XL665. FRET increases proportionally with insulin concentration.
The automated assay protocol is as follows: • On day 1 15k beta-TC6 cells per well were seeded for 24 or 48 h in 50 µl complete medium. On day 2 or respective on day 3 the medium is removed and cells are washed with 60 µl 1xPBS and 20 µl induction buffer is added using BioTek washer. Subsequently, 10 µl Sunitininb (5 µM f.c.) or the test compound in induction buffer; 0.5% f.c. DMSO (CyBi-well) is transferred to the cells. The cells are then incubated at 37°C for 2, 3, 4h.
The HTRF assay is carried out using Greiner 384-well 784075 assay plates. First 10 µl supernatant is transferred from the cell plates in HTRF plates (CyBi-well). 10 µl of 0, 1, 2, and 4 ng/ml Insulin standard controls in assay medium is used as a control. To each well 10 µl of combined 1:25 Ab-XL665 (Acc) and 1:20 Ab-Eu-Cryptate (WellMate) are added and incubated for 120 min at RT in the dark. Finally HTRF is measured on ViewLux ultra high throughput microplate imager (PerkinElmer).
The evaluation software DataFactoty derives relative activities Ar according to the following equation: Ar = (V-R(0%control))/(R(100%control) -R(0%control)) × 100 [formula] […]
The activity of the compounds was classified according to their Ar (relative activity) into the following ranges: Ar ≥ 100% + + + +; 50% ≤ Ar < 100% + + +; 20% ≤ Ar < 50% + +; 10% < Ar < 20% + [formula] Table 10. Ar (relative activity) values of inventive compounds

SMILES	Emax
CN(C)c1ccc(-c2ccc3ncc(-c4ccc(CO)cc4)n3n2)cc1 [compound 129, [4-[6-(4-dimethylaminophenyl)imidazo[1,2-b]pyridazin-3-yl]phenyl]methanol]	50 to 100%
OCc1ccc(-c2cnc3ccc(-c4cncnc4)nn23)cc1 [compound 130, [4-(6-pyrimidin-5-ylimidazo[1,2-b]pyridazin-3-yl)phenyl]methanol]	10 to 20%
OCc1cccc(-c2cnc3ccc(-c4cccc(Oc5ccccc5)c4)nn23)c1 [compound 133, [3-[6-(3-phenoxyphenyl)imidazo[1,2-b]pyridazin-3-yl]phenyl]methanol]	20 to 50%
FC(F)(F)c1cccc(-c2cnc3ccc(-c4ccncc4)nn23)c1 [compound 134, 6-(4-pyridyl)-3-[3-(trifluoromethyl)phenyl]imidazo[1,2-b]pyridazine]	20 to 50%
Oc1cccc(-c2ccc3ncc(-c4cccc(C(F)(F)F)c4)n3n2)c1 [compound 135, 3-[3-[3-(trifluoromethyl)phenyl]imidazo[1,2-b]pyridazin-6-yl]phenol]	20 to 50%
FC(F)(F)c1cccc(-c2cnc3ccc(C4CC4)nn23)c1 [compound 136, 6-cyclopropyl-3-[3-(trifluoromethyl)phenyl]imidazo[1,2-b]pyridazine]	10 to 20%
COc1cc(-c2cnc3ccc(-c4cccc(OC(F)(F)F)c4)nn23)ccc1O [compound 138, 2-methoxy-4-[6-[3-(trifluoromethoxy)phenyl]imidazo[1,2-b]pyridazin-3-yl]phenol]	10 to 20%
NC(=O)c1ccc(-c2cnc3ccc(Cc4ccc(F)c(F)c4)nn23)cc1 [compound 145, 4-[6-[(3,4-difluorophenyl)methyl]imidazo[1,2-b]pyridazin-3-yl]benzamide]	20 to 50%
CC(=O)Nc1ccc(-c2cnc3ccc(-c4ccc(N5CCOCC5)cc4)nn23)cc1 [compound 147, N-[4-[6-(4-morpholinophenyl)imidazo[1,2-b]pyridazin-3-yl]phenyl]acetamide]	≥ 100%
CC(=O)Nc1ccc(-c2cnc3ccc(-c4ccc5c(c4)OCO5)nn23)cc1 [compound 148, N-[4-[6-(1,3-benzodioxol-5-yl)imidazo[1,2-b]pyridazin-3-yl]phenyl]acetamide]	≥ 100%
CC(=O)Nc1ccc(-c2cnc3ccc(-c4ccc(S(C)(=O)=O)cc4)nn23)cc1 [compound 149, N-[4-[6-(4-methylsulfonylphenyl)imidazo[1,2-b]pyridazin-3-yl]phenyl]acetamide]	10 to 20%
CC(=O)c1cccc(-c2cnc3ccc(-c4ccc(N)nc4)nn23)c1 [compound 153, 1-[3-[6-(6-amino-3-pyridyl)imidazo[1,2-b]pyridazin-3-yl]phenyl]ethanone]	20 to 50%
CN(C)c1cccc(-c2ccc3ncc(-c4cccs4)n3n2)c1 [compound 155, N,N-dimethyl-3-[3-(2-thienyl)imidazo[1,2-b]pyridazin-6-yl]aniline]	20 to 50%
Fc1ccc(-c2ccc3ncc(-c4cccs4)n3n2)cc1Cl [compound 156, 6-(3-chloro-4-fluoro-phenyl)-3-(2-thienyl)imidazo[1,2-b]pyridazine]	20 to 50%
COc1cc(-c2ccc3ncc(-c4cccs4)n3n2)ccc1O [compound 157, 2-methoxy-4-[3-(2-thienyl)imidazo[1,2-b]pyridazin-6-yl]phenol]	20 to 50%
Clc1ccccc1-c1ccc2ncc(-c3cccs3)n2n1 [compound 158, 6-(2-chlorophenyl)-3-(2-thienyl)imidazo[1,2-b]pyridazine]	10 to 20%
CS(=O)(=O)Nc1cccc(-c2cnc3ccc(Cc4ccc(F)cc4)nn23)c1 [compound 159, N-[3-[6-[(4-fluorophenyl)methyl]imidazo[1,2-b]pyridazin-3-yl]phenyl]methanesulfonamide]	10 to 20%

SMILES	Emax
Nc1ccc(-c2cnc3ccc(Cc4ccccc4)nn23)cn1 [compound 161, 5-(6-benzylimidazo[1,2-b]pyridazin-3-yl)pyridin-2-amine]	20 to 50%
CN(C)/C(=C1\N=C(c2ccccc2)OC1=O)c1cnc2cccnn12 [compound 162, (4Z)-4-[dimethylamino(imidazo[1,2-b]pyridazin-3-yl)methylene]-2-phenyl-oxazol-5-one]	10 to 20%
c1ccc(-c2nnc3ccc(-c4ccc5c(c4)OCO5)cn23)cc1 [compound 164, 6-(1,3-benzodioxol-5-yl)-3-phenyl-[1,2,4]triazolo[4,3-a]pyridine]	50 to 100%
CC(=O)Nc1cccc(-c2ccc3nnc(-c4ccccc4)n3c2)c1 [compound 165, N-[3-(3-phenyl-[1,2,4]triazolo[4,3-a]pyridin-6-yl)phenyl]acetamide]	50 to 100%
COc1ccc(-c2ccc3nnc(-c4ccccc4)n3c2)c(C)c1 [compound 166, 6-(4-methoxy-2-methyl-phenyl)-3-phenyl-[1,2,4]triazolo[4,3-a]pyridine]	≥ 100%
C(#Cc1ccccn1)c1ccc2nnc(-c3ccccc3)n2c1 [compound 167, 3-phenyl-6-[2-(2-pyridyl)ethynyl]-[1,2,4]triazolo[4,3-a]pyridine]	50 to 100%
CN(C)CC#Cc1ccc2nnc(-c3ccccc3)n2c1 [compound 168, N,N-dimethyl-3-(3-phenyl-[1,2,4]triazolo[4,3-a]pyridin-6-yl)prop-2-yn-1-amine]	10 to 20%
CS(=O)(=O)Nc1cccc(-c2ccc3nnc(-c4ccccc4)n3c2)c1 [compound 169, N-[3-(3-phenyl-[1,2,4]triazolo[4,3-a]pyridin-6-yl)phenyl]methanesulfonamide]	50 to 100%
Clc1cccc(-c2ccc3nnc(-c4ccc5c(c4)OCO5)n3c2)c1 [compound 170, 3-(1,3-benzodioxol-5-yl)-6-(3-chlorophenyl)-[1,2,4]triazolo[4,3-a]pyridine]	20 to 50%
c1cc(-c2ccc3nnc(-c4ccc5c(c4)OCO5)n3c2)co1 [compound 171, 3-(1,3-benzodioxol-5-yl)-6-(3-furyl)-[1,2,4]triazolo[4,3-a]pyridine]	50 to 100%
Cn1cncc1C#Cc1ccc2nnc(-c3ccc4c(c3)OCO4)n2c1 [compound 172, 3-(1,3-benzodioxol-5-yl)-6-[2-(3-methylimidazol-4-yl)ethynyl]-[1,2,4]triazolo[4,3-a]pyridine]	20 to 50%
OCC#Cc1ccc2nnc(-c3ccc4c(c3)OCO4)n2c1 [compound 173, 3-[3-(1,3-benzodioxol-5-yl)-[1,2,4]triazolo[4,3-a]pyridin-6-yl]prop-2-yn-1-ol]	20 to 50%
Cn1cc(-c2ccc3nnc(-c4ccc5c(c4)OCO5)n3c2)cn1 [compound 174, 3-(1,3-benzodioxol-5-yl)-6-(1-methylpyrazol-4-yl)-[1,2,4]triazolo[4,3-a]pyridine]	50 to 100%
CNC(=O)c1cccc(-c2ccc3nnc(-c4ccc5c(c4)OCO5)n3c2)c1 [compound 175, 3-[3-(1,3-benzodioxol-5-yl)-[1,2,4]triazolo[4,3-a]pyridin-6-yl]-N-methyl-benzamide]	20 to 50%
c1cc(-c2nnc3ccc(-c4ccc(N5CCOCC5)cc4)cn23)ccn1 [compound 176, 4-[4-[3-(4-pyridyl)-[1,2,4]triazolo[4,3-a]pyridin-6-yl]phenyl]morpholine]	20 to 50%
COc1ccc(-c2ccc3nnc(-c4ccncc4)n3c2)cc1OC [compound 177, 6-(3,4-dimethoxyphenyl)-3-(4-pyridyl)-[1,2,4]triazolo[4,3-a]pyridine]	20 to 50%
